# Laboratory results published in ChEMBL document CHEMBL5154908, “Design, Synthesis, and Biological Characterization of Inhaled p38α/β MAPK Inhibitors for the Treatment of Lung Inflammatory Diseases” (J Med Chem, 2022).
# Biological target: T1, Mitogen-activated protein kinase 14 (Homo sapiens, UniProt Q16539)
# Experiment: Inhibition of human recombinant full length GST-tagged p38alpha expressed in Escherichia coli preincubated for 2 hrs followed by ATP addition and measured after 1 hr by Alpha screen assay
# T1 sequence (Q16539 whole entry): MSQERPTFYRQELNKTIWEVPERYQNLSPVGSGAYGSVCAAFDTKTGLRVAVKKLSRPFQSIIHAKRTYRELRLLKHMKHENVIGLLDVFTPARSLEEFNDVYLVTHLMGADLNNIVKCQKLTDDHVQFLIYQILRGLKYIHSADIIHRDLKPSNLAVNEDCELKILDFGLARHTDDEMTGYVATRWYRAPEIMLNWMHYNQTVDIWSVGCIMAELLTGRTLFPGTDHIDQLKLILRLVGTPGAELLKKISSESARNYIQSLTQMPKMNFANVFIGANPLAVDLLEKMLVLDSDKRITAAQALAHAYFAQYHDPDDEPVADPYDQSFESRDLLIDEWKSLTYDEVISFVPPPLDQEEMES
row,Compound,IC50
1,Cc1ccc(-n2nc(C(C)(C)C)cc2NC(=O)N[C@H]2CC[C@@H](Oc3ccc4nnc(C5CCCC5)n4c3)c3ccccc32)cc1,0.1 nM
2,CC(C)c1nnc2ccc(O[C@@H]3CC[C@H](NC(=O)Nc4cc(C(C)(C)C)nn4-c4ccc(O)c(Cl)c4)c4ccccc43)cn12,0.08 nM
3,CC(C)(C)c1cc(NC(=O)N[C@H]2CC[C@@H](Oc3ccc4nnc(N5CCCCC5)n4c3)c3ccccc32)n(-c2cccc(CN3CCNCC3)c2)n1,0.8 nM
4,CC(C)c1nnc2ccc(O[C@@H]3CC[C@H](NC(=O)Nc4cc(C(C)(C)C)nn4-c4ccc(Cl)c(O)c4)c4ccccc43)cn12,0.05 nM
5,CC(C)c1nnc2ccc(O[C@@H]3CC[C@H](NC(=O)Nc4cc(C(C)(C)C)nn4-c4cccc(OCCN(C)C)c4)c4ccccc43)cn12,0.8 nM
6,CC(C)(C)c1cc(NC(=O)N[C@H]2CC[C@@H](Oc3ccc4nnc(N5CCCCC5)n4c3)c3ccccc32)n(-c2cccc(CO)c2)n1,0.6 nM
7,Cc1ccc(-n2nc(C(C)(C)C)cc2NC(=O)N[C@H]2CC[C@H](Oc3ccc4nnc(C(C)C)n4c3)c3ccccc32)cc1,0.1 nM
8,Cc1ccc(-n2nc(C(C)(C)C)cc2NC(=O)N[C@H]2CC[C@@H](Oc3ccc4nnc(N5CCN(C)CC5)n4c3)c3ccccc32)cc1,1 nM
9,C[C@H]1CCCCC1c1nnc2ccc(O[C@@H]3CC[C@H](NC(=O)Nc4cc(C(C)(C)C)nn4-c4cccc(OCCN5CCOCC5)c4)c4ccccc43)cn12 (some centres undefined),0.5 nM
10,CN1CCN(Cc2ccc(-n3nc(C(C)(C)C)cc3NC(=O)N[C@H]3CC[C@@H](Oc4ccc5nnc(N6CCCCC6)n5c4)c4ccccc43)cc2)CC1,0.6 nM
11,Cc1ccc(-n2nc(C(C)(C)C)cc2NC(=O)N[C@H]2CC[C@@H](Oc3ccc4nnc(N5CCC(O)CC5)n4c3)c3ccccc32)cc1,0.5 nM
12,C[C@H]1CCCCC1c1nnc2ccc(O[C@@H]3CC[C@H](NC(=O)Nc4cc(C(C)(C)C)nn4-c4cccc(CN5CCN(C)CC5)c4)c4ccccc43)cn12 (some centres undefined),0.3 nM

# Further lines, results first:
row,IC50,Compound
1,0.2 nM,C[C@H]1CCCCN1c1nnc2ccc(O[C@@H]3CC[C@H](NC(=O)Nc4cc(C(C)(C)C)nn4-c4ccn(CCN(C)C)n4)c4ccccc43)cn12
2,0.6 nM,CN(C)CCOc1cccc(-n2nc(C(C)(C)C)cc2NC(=O)N[C@H]2CC[C@@H](Oc3ccc4nnc(N5CCCCC5)n4c3)c3ccccc32)c1
3,0.2 nM,CCN(C)CCn1cc(-n2nc(C(C)(C)C)cc2NC(=O)N[C@H]2CC[C@@H](Oc3ccc4nnc(N5CCCC[C@@H]5C)n4c3)c3ccccc32)cn1
4,0.5 nM,C[C@H]1CCCCN1c1nnc2ccc(O[C@@H]3CC[C@H](NC(=O)Nc4cc(C(C)(C)C)nn4-c4cnn(CCN5CCOCC5)c4)c4ccccc43)cn12
5,0.3 nM,C[C@H]1CCCCN1c1nnc2ccc(O[C@@H]3CC[C@H](NC(=O)Nc4cc(C(C)(C)C)nn4-c4cnnc(OCCN(C)C)c4)c4ccccc43)cn12
6,0.5 nM,Cc1ccc(-n2nc(C(C)(C)C)cc2NC(=O)N[C@H]2CC[C@@H](Oc3ccc4nnc(N5CCCC5)n4c3)c3ccccc32)cc1

# System: not listed separately
# Experiment: Inhibition of LPS-stimulated TNFalpha release in human PBMC cells preincubated for 1 hr followed by LPS stimulation and measured after 18 hrs
# Assay type: functional, cell-based
row,Compound,IC50
1,Cc1ccc(-n2nc(C(C)(C)C)cc2NC(=O)N[C@H]2CC[C@@H](Oc3ccc4nnc(C5CCCC5)n4c3)c3ccccc32)cc1,0.3 nM
2,CC(C)c1nnc2ccc(O[C@@H]3CC[C@H](NC(=O)Nc4cc(C(C)(C)C)nn4-c4ccc(O)c(Cl)c4)c4ccccc43)cn12,1.1 nM
3,CC(C)(C)c1cc(NC(=O)N[C@H]2CC[C@@H](Oc3ccc4nnc(N5CCCCC5)n4c3)c3ccccc32)n(-c2cccc(CN3CCNCC3)c2)n1,1.1 nM
4,CC(C)c1nnc2ccc(O[C@@H]3CC[C@H](NC(=O)Nc4cc(C(C)(C)C)nn4-c4ccc(Cl)c(O)c4)c4ccccc43)cn12,0.7 nM
5,CC(C)c1nnc2ccc(O[C@@H]3CC[C@H](NC(=O)Nc4cc(C(C)(C)C)nn4-c4cccc(OCCN(C)C)c4)c4ccccc43)cn12,9.1 nM
6,CC(C)(C)c1cc(NC(=O)N[C@H]2CC[C@@H](Oc3ccc4nnc(N5CCCCC5)n4c3)c3ccccc32)n(-c2cccc(CO)c2)n1,0.2 nM
7,Cc1ccc(-n2nc(C(C)(C)C)cc2NC(=O)N[C@H]2CC[C@H](Oc3ccc4nnc(C(C)C)n4c3)c3ccccc32)cc1,0.1 nM
8,Cc1ccc(-n2nc(C(C)(C)C)cc2NC(=O)N[C@H]2CC[C@@H](Oc3ccc4nnc(N5CCN(C)CC5)n4c3)c3ccccc32)cc1,2.5 nM
9,C[C@H]1CCCCC1c1nnc2ccc(O[C@@H]3CC[C@H](NC(=O)Nc4cc(C(C)(C)C)nn4-c4cccc(OCCN5CCOCC5)c4)c4ccccc43)cn12 (some centres undefined),0.8 nM
10,CN1CCN(Cc2ccc(-n3nc(C(C)(C)C)cc3NC(=O)N[C@H]3CC[C@@H](Oc4ccc5nnc(N6CCCCC6)n5c4)c4ccccc43)cc2)CC1,2.2 nM
11,Cc1ccc(-n2nc(C(C)(C)C)cc2NC(=O)N[C@H]2CC[C@@H](Oc3ccc4nnc(N5CCC(O)CC5)n4c3)c3ccccc32)cc1,2.1 nM
12,C[C@H]1CCCCC1c1nnc2ccc(O[C@@H]3CC[C@H](NC(=O)Nc4cc(C(C)(C)C)nn4-c4cccc(CN5CCN(C)CC5)c4)c4ccccc43)cn12 (some centres undefined),1 nM

# Other lines, results leading:
row,IC50,Compound
1,2.7 nM,C[C@H]1CCCCN1c1nnc2ccc(O[C@@H]3CC[C@H](NC(=O)Nc4cc(C(C)(C)C)nn4-c4ccn(CCN(C)C)n4)c4ccccc43)cn12
2,1.3 nM,CN(C)CCOc1cccc(-n2nc(C(C)(C)C)cc2NC(=O)N[C@H]2CC[C@@H](Oc3ccc4nnc(N5CCCCC5)n4c3)c3ccccc32)c1
3,2.5 nM,CCN(C)CCn1cc(-n2nc(C(C)(C)C)cc2NC(=O)N[C@H]2CC[C@@H](Oc3ccc4nnc(N5CCCC[C@@H]5C)n4c3)c3ccccc32)cn1
4,1.8 nM,C[C@H]1CCCCN1c1nnc2ccc(O[C@@H]3CC[C@H](NC(=O)Nc4cc(C(C)(C)C)nn4-c4cnn(CCN5CCOCC5)c4)c4ccccc43)cn12
5,1.2 nM,C[C@H]1CCCCN1c1nnc2ccc(O[C@@H]3CC[C@H](NC(=O)Nc4cc(C(C)(C)C)nn4-c4cnnc(OCCN(C)C)c4)c4ccccc43)cn12
6,0.3 nM,Cc1ccc(-n2nc(C(C)(C)C)cc2NC(=O)N[C@H]2CC[C@@H](Oc3ccc4nnc(N5CCCC5)n4c3)c3ccccc32)cc1

# Biological target: T1, Mitogen-activated protein kinase 14
# Experiment: Displacement of SKF-86002 from human inactivated p38alpha assessed as dissociation half life incubated for 2 hrs by fluorescence based analysis
row,Compound,T1/2
1,Cc1ccc(-n2nc(C(C)(C)C)cc2NC(=O)N[C@H]2CC[C@@H](Oc3ccc4nnc(C5CCCC5)n4c3)c3ccccc32)cc1,> 16 h
2,CC(C)c1nnc2ccc(O[C@@H]3CC[C@H](NC(=O)Nc4cc(C(C)(C)C)nn4-c4ccc(O)c(Cl)c4)c4ccccc43)cn12,1.31 h
3,CC(C)(C)c1cc(NC(=O)N[C@H]2CC[C@@H](Oc3ccc4nnc(N5CCCCC5)n4c3)c3ccccc32)n(-c2cccc(CN3CCNCC3)c2)n1,5 h
4,CC(C)c1nnc2ccc(O[C@@H]3CC[C@H](NC(=O)Nc4cc(C(C)(C)C)nn4-c4ccc(Cl)c(O)c4)c4ccccc43)cn12,0.89 h
5,CC(C)c1nnc2ccc(O[C@@H]3CC[C@H](NC(=O)Nc4cc(C(C)(C)C)nn4-c4cccc(OCCN(C)C)c4)c4ccccc43)cn12,0.89 h
6,CC(C)(C)c1cc(NC(=O)N[C@H]2CC[C@@H](Oc3ccc4nnc(N5CCCCC5)n4c3)c3ccccc32)n(-c2cccc(CO)c2)n1,> 16 h
7,Cc1ccc(-n2nc(C(C)(C)C)cc2NC(=O)N[C@H]2CC[C@H](Oc3ccc4nnc(C(C)C)n4c3)c3ccccc32)cc1,> 16 h
8,Cc1ccc(-n2nc(C(C)(C)C)cc2NC(=O)N[C@H]2CC[C@@H](Oc3ccc4nnc(N5CCN(C)CC5)n4c3)c3ccccc32)cc1,9 h
9,C[C@H]1CCCCC1c1nnc2ccc(O[C@@H]3CC[C@H](NC(=O)Nc4cc(C(C)(C)C)nn4-c4cccc(OCCN5CCOCC5)c4)c4ccccc43)cn12 (some centres undefined),> 16 h
10,CN1CCN(Cc2ccc(-n3nc(C(C)(C)C)cc3NC(=O)N[C@H]3CC[C@@H](Oc4ccc5nnc(N6CCCCC6)n5c4)c4ccccc43)cc2)CC1,1.4 h
11,Cc1ccc(-n2nc(C(C)(C)C)cc2NC(=O)N[C@H]2CC[C@@H](Oc3ccc4nnc(N5CCC(O)CC5)n4c3)c3ccccc32)cc1,> 16 h
12,C[C@H]1CCCCC1c1nnc2ccc(O[C@@H]3CC[C@H](NC(=O)Nc4cc(C(C)(C)C)nn4-c4cccc(CN5CCN(C)CC5)c4)c4ccccc43)cn12 (some centres undefined),> 16 h

# Continued, values first:
row,T1/2,Compound
1,1.9 h,C[C@H]1CCCCN1c1nnc2ccc(O[C@@H]3CC[C@H](NC(=O)Nc4cc(C(C)(C)C)nn4-c4ccn(CCN(C)C)n4)c4ccccc43)cn12
2,3.6 h,CN(C)CCOc1cccc(-n2nc(C(C)(C)C)cc2NC(=O)N[C@H]2CC[C@@H](Oc3ccc4nnc(N5CCCCC5)n4c3)c3ccccc32)c1
3,9 h,CCN(C)CCn1cc(-n2nc(C(C)(C)C)cc2NC(=O)N[C@H]2CC[C@@H](Oc3ccc4nnc(N5CCCC[C@@H]5C)n4c3)c3ccccc32)cn1
4,> 16 h,C[C@H]1CCCCN1c1nnc2ccc(O[C@@H]3CC[C@H](NC(=O)Nc4cc(C(C)(C)C)nn4-c4cnn(CCN5CCOCC5)c4)c4ccccc43)cn12
5,1.1 h,C[C@H]1CCCCN1c1nnc2ccc(O[C@@H]3CC[C@H](NC(=O)Nc4cc(C(C)(C)C)nn4-c4cnnc(OCCN(C)C)c4)c4ccccc43)cn12
6,> 16 h,Cc1ccc(-n2nc(C(C)(C)C)cc2NC(=O)N[C@H]2CC[C@@H](Oc3ccc4nnc(N5CCCC5)n4c3)c3ccccc32)cc1
